Patent US7473683B2, “Nonpolar thymidine analogs” (The Board of Trustees of the Leland Stanford Junior …, priority 2005, dated 2009)

Assays:
[1] = tested on: DNA Pol I (Klenow fragment, exo-); assay: steady-state kinetics of single nucleotide insertions, thymidine analogues in the template; type: biochemical, E. coli; conditions: for Km / Vmax: 37° C.; for Vmax: 10 mM MgCl2, pH 7.5, normalized to lowest enzyme concentration; for rel. efficiency: relative to insertion of dATP opposite T
Description: In vitro steady-state kinetics. As polymerase substrates we used 28 mer/23 mer template-primer duplexes having the sequence (5′-ACT GXT CTCCCTATAGTGAGTCGTATTA [SEQ ID NO:1])·(5′-TAATACGACTCACTATAGGGAGA [SEQ ID NO:2]). Kinetics were measured at 37° C. in a buffer containing 10 mM Mg^2+. The primer was 5′ end-labeled and was extended by the polymerase in the presence of a single dNTP species over varied concentration and time. Products of single nucleotide insertions were resolved from unreacted primer by 20% denaturing gel electrophoresis, and were quantitated by autoradiography. Details of the kinetics experiments are given in the Supporting Data.
We chose DNA polymerase I (Klenow fragment, exonuclease-deficient) as an ideal candidate for initial study, as it is enzymatically well-characterized among replicative enzymes, and yet is relatively small and acts as a single subunit. We carried out kinetics studies of single nucleotide insertions in the steady state, using a gel electrophoresis-based assay.
Data for single nucleotide insertion kinetics in the steady-state. The enzyme was the Klenow fragment of DNA pol I from E. coli (exonuclease deficient). Methods are as described above.

[2] = tested on: self-complementary strands (5′-XCGCGCG); assay: dangling end thermal denaturation studies (base stacking) with self-complementary strands; type: physicochemical; conditions: for ΔG°37 (van't Hoff) / ΔH° (van't Hoff) / ΔS° (van't Hoff) / ΔΔG° stacking per base / Tm / ΔG°37 (fits) / ΔTm: dangling residue X in 5′-XCGCGCG; for Tm: 5.0 μM DNA strand, 1M NaCl, 10 mM phosphate buffer (pH 7.0), 0.1 mM EDTA, 280 nm; for ΔG°37 (fits): curve fits; for ΔTm: versus duplex with no dangling residue
Description: (§1) Thermal Denaturation Studies. After the samples were prepared in melting buffer (1M NaCl, 10 mM phosphate buffer (pH 7.0) with 0.1 mM EDTA), they were heated to 95° C. and allowed to slowly cool at a rate of 1° C./min to 5° C. The melting studies were carried out in Teflon-stoppered 1 cm path length quartz cells on a Varian Cary 1 UV-vis spectophotometer equipped with thermoprogrammer. Absorbance was monitored at 280 nm for stacking and at 260 nm for base pairing. […] The data were analyzed by the melt curve processing program, MeltWin v. 3.0. Melting temperatures (Tm) were determined by computer-fit of the first derivative of absorbance with respect to 1/T. Uncertainty in Tm is estimated at ±0.5° C. based on repetitions of experiments. Free-energy values were derived by two methods: (1) computer-fitting the denaturation data with an algorithm employing linear sloping baselines, using the two-state approximation for melting. Fits were excellent, with χ^−2 values of 10^−6 or better. (2) Van't Hoff thermodynamic parameters were derived from linear plots of 1/Tm vs In[CT] by measuring Tm as a function of concentration.
Sequence Design. We incorporated all five phosphoramidites into three new sequence contexts each for further study of pairing and stacking properties. The first is a self-complementary sequence designed to form a hexamer duplex, with the nonnatural base analogue overhanging (dangling) at the 5′ ends (Table 2). This same sequence context has been used previously in several studies of DNA base stacking. The second and third contexts comprise a pair of 12mer sequences that form duplexes with well-behaved two-state behavior. One strand is pyrimidine-rich, while the other is purine-rich; we substituted each analogue at a central position of each strand to test two widely varied sequence contexts for pairing effects.
Base Stacking. DNA base stacking stability has been correlated with the size of compounds when mono-, bi-, tri-, and tetra-cyclic base analogues were compared. To test this with the present series, which varies in size by a smaller amount, we examined the short self-complementary oligonucleotides by thermal denaturation experiments. The self-complementary duplexes contained the modified nucleosides as a 5′ overhanging base.

[3] = tested on: normal and bypass (SOS-induced) polymerases in E. coli; assay: bacterial replication assay: bypass efficiency and fidelity of analogs in single-stranded M13 vector passaged through E. coli; type: cell-based; conditions: for single-base deletions: diminished when bypass polymerases were induced; for difference between the match and mismatch efficiency, increase in cells expressing induced bypass polymerases: SOS-induced bypass polymerases
Text: Bacterial replication assay. The assay for bypass efficiency fidelity is briefly described in the text.
To ascertain the influence of sub-Angstrom size increases on the template coding properties of the T analogs in vivo, we ligated oligonucleotides containing each analog into a single-stranded M13 vector, which were then passaged through E. coli and scored for bypass efficiency and mutagenesis (fidelity) as described. We chose E. coli deficient in AlkB to eliminate the possibility of metabolization of the H analog, which was subsequently found to have no influence on the results when compared with AlkB-proficient cells. Bypass experiments shown in FIG. 7 were performed in a competitive manner, and efficiencies were evaluated by PCR-based quantitation of successfully replicated progeny DNA. SOS-induction of bypass polymerases by prior irradiation of E. coli with ultraviolet light increased trans-analog synthesis approximately 2-fold for all thymine analogs. […] It is noteworthy that the difference between the match and mismatch efficiency increased in cells expressing induced bypass polymerases: L (0.2), B (8.0), I (17.4), implying higher fidelity for the larger isosteres for bypass polymerases, which may contain larger or looser active sites.

[4] = tested on: 12-base pair duplex 5′-CTTTTCXTTCTT / 3′-GAAAAGXAAGAA; assay: thermal denaturation, base pairing near the center of a 12-base pair duplex; type: physicochemical; conditions: pyrimidine- or purine-rich strand, compared to T
Description: as §1
Sequence Design. We incorporated all five phosphoramidites into three new sequence contexts each for further study of pairing and stacking properties. […]

[5] = insertion of dATP opposite template base
[6] = insertion of dCTP opposite template base
[7] = insertion of dGTP opposite template base
[8] = insertion of dTTP opposite template base

| Molecule | Km [1, 5] | Vmax [1, 5] | rel. efficiency [1, 5] | Km [1, 6] | Vmax [1, 6] | rel. efficiency [1, 6] | Km [1, 7] | Vmax [1, 7] | rel. efficiency [1, 7] | Km [1, 8] | Vmax [1, 8] | rel. efficiency [1, 8] | ΔG°37 (van't Hoff) [2] | ΔH° (van't Hoff) [2] | ΔS° (van't Hoff) [2] | ΔΔG° stacking per base [2] | Tm [2] | ΔG°37 (fits) [2] | ΔTm [2] | difference between the match and mismatch efficiency, increase in cells expressing induced bypass polymerases ([3]; E. coli) | also measured |
| --- | --- | --- | --- | --- | --- | --- | --- | --- | --- | --- | --- | --- | --- | --- | --- | --- | --- | --- | --- | --- | --- |
| 2,4-diHydrogentoluene | 20 ± 2 µM | 0.90 ± 0.18 % · m in^−1 | 3.5 × 10^−3 | 100 ± 60 µM | 0.031 ± 0.006 % · m in^−1 | 2.4 × 10^−5 | 600 ± 210 µM | 0.025 ± 0.007 % · m in^−1 | 3.2 × 10^−6 | 61 ± 37 µM | 0.062 ± 0.022 % · m in^−1 | 7.7 × 10^−5 | -9.7 ± 0.1 kcal/mol | -55.4 ± 2.0 kcal/mol | −147 ± 6 cal/K · mol | 0.95 kcal/mol | 49.7 °C | -9.7 ± 0.0 kcal/mol | 11.1 °C | – | stabilization of the duplex by 5′ overhanging base (stacking) ([2]; compared with natural thymidine in the same position): least stabilizing of the series; single-base deletions ([3]; E. coli): evident |
| Cc1ccc(Br)cc1Br [B, 2,4-dibromotoluene] | 21 ± 5 µM | 12 ± 1 % · m in^−1 | 4.4 × 10^−2 | 79 ± 33 µM | 0.038 ± 0.005 % · m in^−1 | 3.7 × 10^−5 | 220 ± 100 µM | 0.023 ± 0.005 % · m in^−1 | 7.7 × 10^−6 | 37 ± 12 µM | 0.20 ± 0.03 % · m in^−1 | 4.2 × 10^−4 | -10.8 ± 0.1 kcal/mol | -62.0 ± 2.1 kcal/mol | −165 ± 7 cal/K · mol | 1.50 kcal/mol | 54.3 °C | -10.2 ± 0.0 kcal/mol | 15.7 °C | 8.0 | – |
| Cc1ccc(I)cc1I [I, 2,4-diiodotoluene] | 26 ± 11 µM | 1.3 ± 0.2 % · m in^−1 | 3.8 × 10^−3 | 20 ± 8 µM | 0.036 ± 0.001 % · m in^−1 | 1.4 × 10^−4 | 58 ± 18 µM | 0.017 ± 0.001 % · m in^−1 | 2.2 × 10^−5 | 48 ± 39 µM | 0.085 ± 0.037 % · m in^−1 | 1.4 × 10^−4 | -10.4 ± 0.2 kcal/mol | -55.7 ± 4.4 kcal/mol | −146 ± 14 cal/K · mol | 1.30 kcal/mol | 53.8 °C | -10.2 ± 0.1 kcal/mol | 15.2 °C | 17.4 | pairing stability opposite natural bases [4]: least destabilizing; single-base deletions ([3]; E. coli): evident |
| Cc1ccc(Cl)cc1Cl [L, 2,4-dichlorotoluene] | 3.3 ± 2.8 µM | 27 ± 5 % · m in^−1 | 6.3 × 10^−1 | 25 ± 13 µM | 0.021 ± 0.003 % · m in^−1 | 6.5 × 10^−5 | 190 ± 90 µM | 0.029 ± 0.007 % · m in^−1 | 1.2 × 10^−5 | 18 ± 18 µM | 0.13 ± 0.04 % · m in^−1 | 5.5 × 10^−4 | -10.0 ± 0.1 kcal/mol | -52.7 ± 1.2 kcal/mol | −138 ± 4 cal/K · mol | 1.10 kcal/mol | 52.3 °C | -10.1 ± 0.0 kcal/mol | 13.7 °C | 0.2 | replication bypass efficiency ([3]; E. coli, normal and bypass polymerases, competitive, PCR-based quantitation of progeny DNA): maximum bypass; replication fidelity in E. coli ([3]; normal and bypass polymerases): maximal in vivo fidelity |
| difluorotoluene [reference compound] | 9.4 ± 2.9 µM | 24 ± 3 % · m in^−1 | 2.0 × 10^−1 | 33 ± 11 µM | 0.071 ± 0.011 % · m in^−1 | 1.7 × 10^−4 | 36 ± 12 µM | 0.0071 ± 0.0008 % · m in^−1 | 1.5 × 10^−5 | 22 ± 13 µM | 0.12 ± 0.03 % · m in^−1 | 4.2 × 10^−4 | -10.1 ± 0.0 kcal/mol | -54.5 ± 0.9 kcal/mol | −143 ± 3 cal/K · mol | 1.15 kcal/mol | 52.4 °C | -10.1 ± 0.0 kcal/mol | 13.8 °C | – | – |
